Experiments:
[1] = biological target: T1, angiotensin converting enzyme (Rattus norvegicus, UniProt P47820); experiment: In vivo test for inhibition of angiotensin converting enzyme: pressor responses to angiotensin I and II in anaesthetised rats
T1 construct: were each tested in anaesthetised rats; from tissue; host or cells: whole animal (anaesthetised rat)
T1 sequence (P47820 36-1313): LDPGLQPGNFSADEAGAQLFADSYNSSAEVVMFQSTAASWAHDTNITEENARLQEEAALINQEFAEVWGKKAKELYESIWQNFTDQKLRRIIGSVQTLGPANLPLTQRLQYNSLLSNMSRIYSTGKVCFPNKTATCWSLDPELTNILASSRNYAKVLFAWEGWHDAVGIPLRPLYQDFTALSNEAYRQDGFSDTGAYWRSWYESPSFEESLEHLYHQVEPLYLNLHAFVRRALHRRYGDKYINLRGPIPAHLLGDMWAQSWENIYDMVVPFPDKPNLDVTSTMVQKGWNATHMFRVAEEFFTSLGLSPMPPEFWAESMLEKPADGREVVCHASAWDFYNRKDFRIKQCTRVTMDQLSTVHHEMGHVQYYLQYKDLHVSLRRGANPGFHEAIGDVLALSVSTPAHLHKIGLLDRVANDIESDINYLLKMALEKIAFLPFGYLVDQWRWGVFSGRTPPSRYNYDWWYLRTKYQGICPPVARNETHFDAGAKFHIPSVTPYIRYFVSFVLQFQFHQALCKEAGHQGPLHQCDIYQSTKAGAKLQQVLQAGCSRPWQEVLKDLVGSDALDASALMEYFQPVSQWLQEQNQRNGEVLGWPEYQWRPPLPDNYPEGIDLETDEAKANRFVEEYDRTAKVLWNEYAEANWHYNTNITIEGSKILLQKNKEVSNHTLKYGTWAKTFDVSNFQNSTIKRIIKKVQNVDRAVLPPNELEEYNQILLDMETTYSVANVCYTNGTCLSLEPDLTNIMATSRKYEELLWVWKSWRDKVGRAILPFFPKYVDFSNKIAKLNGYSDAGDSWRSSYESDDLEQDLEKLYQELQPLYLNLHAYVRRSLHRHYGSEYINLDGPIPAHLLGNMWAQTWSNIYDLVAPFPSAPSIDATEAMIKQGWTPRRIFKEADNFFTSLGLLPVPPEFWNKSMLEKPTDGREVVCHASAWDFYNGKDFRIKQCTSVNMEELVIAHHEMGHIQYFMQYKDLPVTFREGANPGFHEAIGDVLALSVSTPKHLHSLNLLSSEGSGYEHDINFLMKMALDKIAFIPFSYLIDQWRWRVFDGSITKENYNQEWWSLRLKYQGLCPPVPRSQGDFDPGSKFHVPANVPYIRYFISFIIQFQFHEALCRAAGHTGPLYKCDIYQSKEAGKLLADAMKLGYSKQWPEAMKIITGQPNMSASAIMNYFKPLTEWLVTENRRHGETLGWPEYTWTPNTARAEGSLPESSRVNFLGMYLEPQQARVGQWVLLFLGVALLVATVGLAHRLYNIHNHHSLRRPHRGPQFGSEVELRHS
Protocol: 2. In vivo test for inhibition of angiotensin converting enzyme.
The compounds of examples 1,2,4 & 5 were each tested in anaesthetised rats for their ability to reduce the pressor responses to angiotensin I, but not those to angiotensin II. The dose of angiotensin I was 300 n.g/kg (i.v) and the dose of angiotensin II was 100 ng/kg (i.v).
The results given are the mean of those obtained from the given number of rats.
'I' is the increase in diastolic blood pressure (mm Hg) to angiotensin I (control reponse).
'%R' is the percentage reduction in control angiotensin I response after the intervals (min) from dosage.

[2] = tested on: Spontaneously hypertensive rats; experiment: Antihypertensive activity in spontaneously hypertensive rats (tail cuff method); format: in vivo
Protocol: 3. Antihypertensive Activity
Each determination of blood pressure was the mean of at least 6 readings. Spontaneously hypertensive rats (ages 12-18 weeks) with systolic blood pressures 170 mmH:g were considered hypertensive.
The initial blood pressure and heart rats were determined and recorded together with the % changes occuring at intervals thereafter: […]

[3] = biological target: T2, rat lung angiotensin converting enzyme preparation (Rattus norvegicus, UniProt P47820); experiment: In vitro test for inhibition of angiotensin converting enzyme; format: biochemical; settings: mean of 3 experiments; read-out: 50% inhibitior. (IC50) of rat lung angiotensin converting enzyme preparation
T2 construct: rat lung angiotensin converting enzyme preparation; from tissue; host or cells: rat lung
T2 sequence (P47820 36-1313): T1 sequence (P47820 36-1313)
From the text: 1. In vitro test for inhibition of angiotensin converting enzyme

[4] = 0.03 mg/kg i.v, 5 min from dosage
[5] = 0.03 mg/kg i.v, 10 min from dosage
[6] = 0.03 mg/kg i.v, 15 min from dosage
[7] = 0.10 mg/kg i.v, 5 min from dosage
[8] = 0.10 mg/kg i.v, 10 min from dosage
[9] = 0.10 mg/kg i.v, 15 min from dosage
[10] = 0.10 mg/kg i.v, 25 min from dosage
[11] = 0.10 mg/kg i.v, 30 min from dosage
[12] = 0.10 mg/kg i.v, 40 min from dosage
[13] = 0.10 mg/kg i.v, 45 min from dosage
[14] = 0.10 mg/kg i.v, 50 min from dosage
[15] = 0.30 mg/kg i.v, 5 min from dosage
[16] = 0.30 mg/kg i.v, 10 min from dosage
[17] = 0.30 mg/kg i.v, 15 min from dosage
[18] = 0.30 mg/kg i.v, 25 min from dosage
[19] = 0.30 mg/kg i.v, 30 min from dosage
[20] = 0.30 mg/kg i.v, 40 min from dosage
[21] = 0.30 mg/kg i.v, 45 min from dosage
[22] = 0.30 mg/kg i.v, 50 min from dosage
[23] = 10 mg/kg p.o., 1 hour post dose
[24] = 10 mg/kg p.o., 4 hours post dose
[25] = 10 mg/kg p.o., 6 hours post dose
[26] = 10 mg/kg p.o., 24 hours post dose
[27] = 30 mg/kg p.o., 1 hour post dose
[28] = 30 mg/kg p.o., 2 hours post dose
[29] = 30 mg/kg p.o., 4 hours post dose
[30] = 30 mg/kg p.o., 6 hours post dose
[31] = 30 mg/kg p.o., 24 hours post dose

Row | %R percentage reduction in control angiotensin I response [1, 7] [%] | %R percentage reduction in control angiotensin I response [1, 8] [%] | %R percentage reduction in control angiotensin I response [1, 9] [%] | %R percentage reduction in control angiotensin I response [1, 10] [%] | %R percentage reduction in control angiotensin I response [1, 11] [%] | %R percentage reduction in control angiotensin I response [1, 12] [%] | %R percentage reduction in control angiotensin I response [1, 13] [%] | %R percentage reduction in control angiotensin I response [1, 14] [%] | Substance | %R percentage reduction in control angiotensin I response [1, 4] [%] | %R percentage reduction in control angiotensin I response [1, 5] [%] | %R percentage reduction in control angiotensin I response [1, 6] [%] | %R percentage reduction in control angiotensin I response [1, 15] [%] | %R percentage reduction in control angiotensin I response [1, 16] [%] | %R percentage reduction in control angiotensin I response [1, 17] [%] | %R percentage reduction in control angiotensin I response [1, 18] [%] | %R percentage reduction in control angiotensin I response [1, 19] [%] | %R percentage reduction in control angiotensin I response [1, 20] [%] | %R percentage reduction in control angiotensin I response [1, 21] [%] | %R percentage reduction in control angiotensin I response [1, 22] [%] | other results
1 | 60 | 64 | 57 | 41 | 38 | 36 | 32 | 24 | N-(1-Carboxypropyl)-(S)-alanyl-4α-benzyloxy-(S)-proline [Example 1] | 39 | 29 | 6 | 86 | 80 | 77 | 76 | 77 | 73 | 72 | 74 | IC50 [3]: 3.3 nM
2 | 34 | 29 | 25 | 15 | 14 | 16 | 14 | – | N-[2-(2,3-dihydro-2-benzofuranyl)-l-(ethoxycarbonyl) -ethyl)-(S)-alanyl -4α-benzyloxy-(S)-nroline [Example 4] | – | – | – | – | – | – | – | – | – | – | – | –
3 | 61 | 58 | 52 | 47 | 44 | 39 | – | 18 | N-[4-(2,3-dihydro-2-benzofuranyl)-l-(ethoxycar-α bonyl)-butyl]-(S)-alanyl-4αbenzyloxy-(S)-proline [Example 5] | – | – | – | – | – | – | – | – | – | – | – | % change in heart rate [2, 27]: -2 ± 2%; % change in systolic blood pressure [2, 27]: -10± 3%; % change in heart rate [2, 28]: 0 ± 4%; % change in systolic blood pressure [2, 28]: -7± 2%; % change in heart rate [2, 29]: +5 ± 3%; % change in systolic blood pressure [2, 29]: -23± 1%; % change in heart rate [2, 30]: 0 ± 3%; % change in systolic blood pressure [2, 30]: -17± 1%; % change in heart rate [2, 31]: +9 ± 5%; % change in systolic blood pressure [2, 31]: +1± 3%

Row | Substance | %R percentage reduction in control angiotensin I response [1, 7] [%] | %R percentage reduction in control angiotensin I response [1, 8] [%] | %R percentage reduction in control angiotensin I response [1, 9] [%] | %R percentage reduction in control angiotensin I response [1, 10] [%] | %R percentage reduction in control angiotensin I response [1, 11] [%] | %R percentage reduction in control angiotensin I response [1, 12] [%] | %R percentage reduction in control angiotensin I response [1, 13] [%] | %R percentage reduction in control angiotensin I response [1, 14] [%] | %R percentage reduction in control angiotensin I response [1, 4] [%] | %R percentage reduction in control angiotensin I response [1, 5] [%] | %R percentage reduction in control angiotensin I response [1, 6] [%] | %R percentage reduction in control angiotensin I response [1, 15] [%] | %R percentage reduction in control angiotensin I response [1, 16] [%] | %R percentage reduction in control angiotensin I response [1, 17] [%] | %R percentage reduction in control angiotensin I response [1, 18] [%] | %R percentage reduction in control angiotensin I response [1, 19] [%] | %R percentage reduction in control angiotensin I response [1, 20] [%] | %R percentage reduction in control angiotensin I response [1, 21] [%] | %R percentage reduction in control angiotensin I response [1, 22] [%] | other results
4 | N-(1-carbethoxy-3-phenylpropyl)-(S)-alanyl-4α-benzyloxy-(S)-proline [Example 2] | 67 | 66 | 61 | 53 | 42 | 47 | 39 | 29 | 23 | 25 | 19 | 82 | 81 | 80 | 69 | 67 | 69 | 65 | 60 | %R percentage reduction in control angiotensin I response ([1]; 0.03 mg/kg i.v, 25 min from dosage): 12%; % change in heart rate [2, 23]: -7 ± 3%; % change in systolic blood pressure [2, 23]: -5± 3%; % change in systolic blood pressure ([2]; 10 mg/kg p.o., 2 hours post dose): -10± 3%; % change in heart rate [2, 24]: -5 ± 4%; % change in systolic blood pressure [2, 24]: -22± 3%; % change in heart rate [2, 25]: 1 ± 4%; % change in systolic blood pressure [2, 25]: -22± 4%; % change in heart rate [2, 26]: -4 ± 3%; % change in systolic blood pressure [2, 26]: -7± 4%

— patent EP0080822A1, “Anti-hypertensive prolinol-based peptides” (BEECHAM GROUP PLC, priority 1981, dated 1983)
